From article PMC8048981, “Cys–Cys and Cys–Lys Stapling of Unprotected Peptides Enabled by Hypervalent Iodine Reagents” (Angewandte Chemie (International Ed. in English), 2021)
Read-outs that look alike come from different tables or passages of the source.

How the values were obtained:
[1] = Two-component Cys-Lys stapling: Cys S-alkynylation by EBX-pentafluorophenyl ester reagents 9a-9d (1.1 equiv), then intramolecular Lys aminolysis of the PFP ester; DIPEA (2.5 equiv); conditions: the molecule shown is the open-chain precursor, DMF, 1.0 mM, 37.0 °C, scale: % relative absorbance at 210 nm vs linear peptide standard
[2] = Two-component Cys-Lys stapling with EBX-PFP ester reagents 9a/9b (1.1 equiv), DIPEA (2.5 equiv), preparative RP-HPLC; conditions: the molecule shown is the open-chain precursor, DMF, 1.0 mM, 37.0 °C
[3] = the molecule shown is the open-chain precursor, scale: % relative absorbance at 210 nm vs linear peptide standard
[4] = Two-component Cys-Cys stapling with bis-hypervalent iodine reagents 8c-8e (3.0 equiv), DIPEA (2.5 equiv), overnight, preparative RP-HPLC; conditions: the molecule shown is the open-chain precursor, DMF, 2.0 mM, 37.0 °C
[5] = 24-membered ring, DMF, 1.0 mM, 37.0 °C, 4.0 h
[6] = 22-membered ring, DMF, 1.0 mM, 37.0 °C, 4.0 h
[7] = 33-membered ring, DMF, 1.0 mM, 37.0 °C, 4.0 h

Ac-YGGEAARK(ivDde)AC(S-C≡C-C6H4-4-CO-OPfp)AREKAARE-NH2
ring closure, conversion by HPLC ([1]; 27-membered ring, 0.5 h): 117

Ac-ENPEC(S-C≡C-C6H4-4-CO-OPfp)ILDKHVQRVM-NH2
ring closure, conversion by HPLC ([1]; 27-membered ring, 0.5 h): 62
ring closure, isolated yield (% isolated yield) ([2]; 27-membered ring): 52

CSCC[C@H](NC(=O)[C@H](CC(N)=O)NC(=O)[C@H](CCCCN)NC(=O)[C@H](Cc1ccc(O)cc1)NC(=O)[C@H](CS)NC(=O)[C@H](CCC(=O)O)NC(=O)[C@H](Cc1c[nH]cn1)NC(=O)[C@H](Cc1c[nH]c2ccccc12)NC(=O)[C@H](CSC#C[Si](O[Si](C#CI1OC(C(F)(F)F)(C(F)(F)F)c2ccccc21)(C(C)C)C(C)C)(C(C)C)C(C)C)NC(=O)[C@H](CCCNC(=N)N)NC(=O)[C@H](CCC(=O)O)NC(=O)[C@@H](N)CO)C(N)=O
ring closure, conversion by HPLC [3, 5]: 15

Ac-QSQQTFC(S-C≡C-C6H4-4-CO-OPfp)NLWRLLKQN-NH2
ring closure, conversion by HPLC ([1]; 36-membered ring, 0.5 h): 117
ring closure, isolated yield (% isolated yield) ([2]; 36-membered ring): 87

Ac-YGGEAAREAC(S-C≡C-C6H4-2-CO-OPfp)AREKAARE-NH2
ring closure, conversion by HPLC ([1]; 25-membered ring, 0.5 h): 118

Ac-ENPEC(S-C≡C-Si(iPr)2-C≡C-I[bis-CF3 benziodoxole])ILDCHVQRVM-NH2
ring closure, conversion by HPLC [3, 6]: 98
ring closure, isolated yield (% isolated yield) ([4]; 22-membered ring): 46

Ac-YGGEAAREAC(S-C≡C-C6H4-3-CO-OPfp)AREKAARE-NH2
ring closure, conversion by HPLC ([1]; 26-membered ring, 0.5 h): 77
ring closure, isolated yield (% isolated yield) ([2]; 26-membered ring): 44

Ac-ENPEC(S-C≡C-Si(cHex)2-C≡C-I[bis-CF3 benziodoxole])ILDCHVQRVM-NH2
ring closure, conversion by HPLC [3, 6]: 89

Ac-YGGEKAREAC(S-C≡C-C6H4-4-CO-OPfp)AREKAARE-NH2
ring closure, conversion by HPLC ([1]; 27-membered ring, 0.5 h): 91

Ac-QSQQTFC(S-C≡C-C6H4-2-CO-OPfp)NLWRLLKQN-NH2
ring closure, conversion by HPLC ([1]; 34-membered ring, 0.5 h): 123

Ac-QSQQTFC(S-C≡C-Si(iPr)2-O-Si(iPr)2-C≡C-I[bis-CF3 benziodoxole])NLWRLLCQN-NH2
ring closure, conversion by HPLC [3, 7]: 30
ring closure, isolated yield (% isolated yield) ([4]; 33-membered ring): 17

Ac-QSQQTFC(S-C≡C-Si(iPr)2-C≡C-I[bis-CF3 benziodoxole])NLWRLLCQN-NH2
ring closure, conversion by HPLC ([3]; 31-membered ring, DMF, 1.0 mM, 37.0 °C, 4.0 h): 30
ring closure, isolated yield (% isolated yield) ([4]; 31-membered ring): 13

Ac-YGGEAAREAC(S-C≡C-Si(iPr)2-C≡C-I[bis-CF3 benziodoxole])ARECAARE-NH2
ring closure, conversion by HPLC ([3]; 22-membered ring): 72
ring closure, isolated yield (% isolated yield) ([4]; 22-membered ring): 48

Ac-QSQQTFC(S-C≡C-Si(cHex)2-C≡C-I[bis-CF3 benziodoxole])NLWRLLCQN-NH2
ring closure, isolated yield (% isolated yield) ([4]; 31-membered ring): 22

CSCC[C@H](NC(=O)[C@H](CC(N)=O)NC(=O)[C@H](Cc1ccc(O)cc1)NC(=O)[C@H](CCCCN)NC(=O)[C@H](CCC(=O)O)NC(=O)[C@H](Cc1c[nH]cn1)NC(=O)[C@H](Cc1c[nH]c2ccccc12)NC(=O)[C@H](CSC#Cc1ccc(C(=O)Oc2c(F)c(F)c(F)c(F)c2F)cc1)NC(=O)[C@H](CCCNC(=N)N)NC(=O)[C@H](CCC(=O)O)NC(=O)[C@@H](N)CO)C(N)=O [H-SERC(S-C≡C-C6H4-4-CO-OPfp)WHEKYNM-NH2]
ring closure, conversion by HPLC ([1]; 27-membered ring, 0.5 h): 63

5(6)-FAM-QSQQTFC(S-C≡C-C6H4-4-CO-OPfp)NLWRLLKQN-NH2
ring closure, isolated yield (% isolated yield) ([2]; 36-membered ring): 76

C[C@H](NC(=O)[C@H](CC(=O)O)NC(=O)[C@H](Cc1c[nH]cn1)NC(=O)[C@H](CCCCN)NC(=O)[C@H](Cc1ccc(O)cc1)NC(=O)[C@H](Cc1ccccc1)NC(=O)[C@H](CCC(N)=O)NC(=O)[C@H](CO)NC(=O)[C@@H](N)CCCNC(=N)N)C(=O)NCC(=O)N[C@@H](CSC#Cc1cccc(C(=O)Oc2c(F)c(F)c(F)c(F)c2F)c1)C(=O)NCC(N)=O [H-RSQFYKHDAGC(S-C≡C-C6H4-3-CO-OPfp)G-NH2]
ring closure, conversion by HPLC ([1]; 29-membered ring, 0.5 h): 22

Ac-YGGEAAREAC(S-C≡C-C6H4-4-CO-OPfp)AREKAARE-NH2
ring closure, conversion by HPLC ([1]; 27-membered ring, 0.5 h): 114
ring closure, isolated yield (% isolated yield) ([2]; 27-membered ring): 65

Ac-QSQQTFC(S-C≡C-C6H4-4-C≡C-I[bis-CF3 benziodoxole])NLWRLLCQN-NH2
ring closure, conversion by HPLC ([3]; 34-membered ring, DMF, 1.0 mM, 37.0 °C, 4.0 h): 46

Ac-YGGEAARKAC(S-C≡C-C6H4-3-CO-OPfp)AREKAARE-NH2
ring closure, conversion by HPLC ([1]; 26-membered ring, 0.5 h): 74

Ac-ENPEC(S-C≡C-C6H4-3-CO-OPfp)ILDKHVQRVM-NH2
ring closure, conversion by HPLC ([1]; 26-membered ring, 0.5 h): 34
ring closure, isolated yield (% isolated yield) ([2]; 26-membered ring): 7

Ac-QSQQTFC(S-C≡C-C6H4-3-CO-OPfp)NLWRLLKQN-NH2
ring closure, conversion by HPLC ([1]; 35-membered ring, 0.5 h): 110
ring closure, isolated yield (% isolated yield) ([2]; 35-membered ring): 55

Ac-ENPEC(S-C≡C-C6H4-4-C≡C-I[bis-CF3 benziodoxole])ILDCHVQRVM-NH2
ring closure, conversion by HPLC ([3]; 25-membered ring): 27

Ac-ENPEC(S-C≡C-Si(iPr)2-O-Si(iPr)2-C≡C-I[bis-CF3 benziodoxole])ILDCHVQRVM-NH2
ring closure, conversion by HPLC [3, 5]: 51
ring closure, isolated yield (% isolated yield) ([4]; 24-membered ring): 29

Ac-QSQQTFC(S-C≡C-C6H4-3-C≡C-I[bis-CF3 benziodoxole])NLWRLLCQN-NH2
ring closure, conversion by HPLC [3, 7]: 13

Ac-YGGEAARKAC(S-C≡C-C6H4-4-CO-OPfp)AREKAARE-NH2
ring closure, conversion by HPLC ([1]; 27-membered ring, 0.5 h): 92

Ac-YGGEAAREAC(S-C≡C-C6H4-4-CO-OPfp)AREKAAREK-NH2
ring closure, conversion by HPLC ([1]; 27-membered ring, 0.5 h): 95

C[C@H](NC(=O)[C@H](CC(=O)O)NC(=O)[C@H](Cc1c[nH]cn1)NC(=O)[C@H](CCCCN)NC(=O)[C@H](Cc1ccc(O)cc1)NC(=O)[C@H](Cc1ccccc1)NC(=O)[C@H](CCC(N)=O)NC(=O)[C@H](CO)NC(=O)[C@@H](N)CCCNC(=N)N)C(=O)NCC(=O)N[C@@H](CSC#Cc1ccc(C(=O)Oc2c(F)c(F)c(F)c(F)c2F)cc1)C(=O)NCC(N)=O [H-RSQFYKHDAGC(S-C≡C-C6H4-4-CO-OPfp)G-NH2]
ring closure, conversion by HPLC ([1]; 30-membered ring, 0.5 h): 54
ring closure, conversion by HPLC ([1]; 41-membered ring, 0.5 h): 18

Ac-ENPEC(S-C≡C-C6H4-3-C≡C-I[bis-CF3 benziodoxole])ILDCHVQRVM-NH2
ring closure, conversion by HPLC [3, 5]: 13

Ac-YGGEAAREAC(S-C≡C-Si(cHex)2-C≡C-I[bis-CF3 benziodoxole])ARECAARE-NH2
ring closure, conversion by HPLC ([3]; 22-membered ring): 69

CSCC[C@H](NC(=O)[C@H](CC(N)=O)NC(=O)[C@H](CCCCN)NC(=O)[C@H](Cc1ccc(O)cc1)NC(=O)[C@H](CS)NC(=O)[C@H](CCC(=O)O)NC(=O)[C@H](Cc1c[nH]cn1)NC(=O)[C@H](Cc1c[nH]c2ccccc12)NC(=O)[C@H](CSC#C[Si](C#CI1OC(C(F)(F)F)(C(F)(F)F)c2ccccc21)(C(C)C)C(C)C)NC(=O)[C@H](CCCNC(=N)N)NC(=O)[C@H](CCC(=O)O)NC(=O)[C@@H](N)CO)C(N)=O
ring closure, conversion by HPLC [3, 6]: 79

Ac-YGGEAAREAC(S-C≡C-Si(iPr)2-O-Si(iPr)2-C≡C-I[bis-CF3 benziodoxole])ARECAARE-NH2
ring closure, conversion by HPLC ([3]; 24-membered ring): 9
ring closure, isolated yield (% isolated yield) ([4]; 24-membered ring): 19

CSCC[C@H](NC(=O)[C@H](CC(N)=O)NC(=O)[C@H](Cc1ccc(O)cc1)NC(=O)[C@H](CCCCN)NC(=O)[C@H](CCC(=O)O)NC(=O)[C@H](Cc1c[nH]cn1)NC(=O)[C@H](Cc1c[nH]c2ccccc12)NC(=O)[C@H](CSC#Cc1cccc(C(=O)Oc2c(F)c(F)c(F)c(F)c2F)c1)NC(=O)[C@H](CCCNC(=N)N)NC(=O)[C@H](CCC(=O)O)NC(=O)[C@@H](N)CO)C(N)=O [H-SERC(S-C≡C-C6H4-3-CO-OPfp)WHEKYNM-NH2]
ring closure, conversion by HPLC ([1]; 26-membered ring, 0.5 h): 20

Ac-ENPEC(S-C≡C-C6H4-2-CO-OPfp)ILDKHVQRVM-NH2
ring closure, conversion by HPLC ([1]; 25-membered ring, 0.5 h): 101

Ac-YGGEAARK(ivDde)AC(S-C≡C-C6H4-3-CO-OPfp)AREKAARE-NH2
ring closure, conversion by HPLC ([1]; 26-membered ring, 0.5 h): 72

Ac-YGGEAAREAC(S-C≡C-C6H3-3,5-(CO-OPfp)2)AREKAARE-NH2
ring closure, conversion by HPLC ([1]; 26-membered ring, 0.25 h): 70
